The subject of one data set is Vero cells. Description: Cytotoxicity assay in Vero cells. The data set is classed as cell-based.
The next data set has as its system HCV Replicon RNA. Description: HCV Replicon Assay (Huh 7 Clone B cells). In kind it is cell-based. As to conditions: tested at 10 μM, five days. From the text: (§1) Agents Chemother. […] K., Otto, M. J., Schinazi, R. F. “Antiviral activities and cellular toxicities of modified 2′,3′-dideoxy-2′,3′-didehydrocytidine analogs” Antimicrob. Agents Chemother. 2002, 46, 3854-60. • ^cHSV-1 drug susceptibility assay was done as previously described in: Schinazi, R. F., Peters, J., Williams, C. C., Chance, D., Nahmias, A. J. “Effect of combinations of acyclovir with vidarabine or its 5′-monophosphate on herpes simplex virus in cell culture and in mice.” Antimicrob. Agents Chemother. 1982, 22, 499-507. • ^dHCV Replicon Assay^1: Huh 7 Clone B cells containing HCV Replicon RNA were seeded in a 96-well plate at 5000 cells/well, and the compounds were tested at 10 μM in triplicate immediately after seeding. Following five days incubation (37° C., 5% CO2), total cellular RNA was isolated by using versaGene RNA purification kit from Gentra. Replicon RNA and an internal control (TaqMan rRNA control reagents, Applied Biosystems) were amplified in a single step multiplex Real Time RT-PCR Assay. The antiviral effectiveness of the compounds was calculated by subtracting the threshold RT-PCR cycle of the test compound from the threshold RT-PCR cycle of the no-drug control (ΔCtHCV). A ΔCt of 3.3 equals a 1-log reduction (equal to 90% less starting material) in Replicon RNA levels. The cytotoxicity of the compounds was also calculated by using the ΔCt rRNA values. 77 (2′-Me-C) was used as the control. To determine EC90 and IC50 values^2, ΔCt: values were first converted into fraction of starting material^3 and then were used to calculate the % inhibition.

In a further data set the test system is CEM cells. Description: Cytotoxicity assay in CEM cells. The data set is classed as cell-based, human.
Data set [1] has as its system PBM cells. Description: Cytotoxicity assay in PBM cells. The data set is classed as cell-based, human.
For another data set, the system named is HSV-1. In words: HSV-1 drug susceptibility assay. In kind it is cell-based. As to conditions: Human alphaherpesvirus 1.
Description: as §1

Another data set deals with HBV. In words: Anti-HBV assay (AD-38 cell line). The data set is classed as cell-based. As to conditions: Hepatitis B virus. On the procedure: The anti-HBV activity of the compounds was determined by treating the AD-38 cell line carrying wild type HBV under the control of tetracycline (see Ladner S. K., Otto M. J., Barker C. S., Zaifert K., Wang G. H., Guo J. T., Seeger C. & King R. W. Antimicrob. Agents Chemother. 1997, 41, 1715-20). Removal of tetracycline from the medium [Tet (−)] results in the production of HBV. The levels of HBV in the culture supernatant fluids from cells treated with the compounds were compared with that of the untreated controls. Control cultures with tetracycline [Tet (+)] were also maintained to determine the basal levels of HBV expression.

A further data set relates to HIV-2/pROD10. Description: HIV-2 drug susceptibility in PBM cells. In kind it is cell-based. To be noted: Human immunodeficiency virus 2, PBMC.
The next data set relates to adenosine deaminase. In words: Adenosine deaminase assay (deamination of nucleosides). In kind it is in vitro ADME. To be noted: 50 μM, pH 7.4. As for the experimental part:
In order to determine if these 6-substituted compounds are converted to G analogs by the enzyme adenosine deaminase, a series of enzyme kinetics experiments were undertaken.
To determine the propensity for deamination of the APN nucleosides by adenosine deaminase, nucleoside compounds were incubated with the commercially available purified enzyme, and the reaction was followed spectrophotometrically. Reaction conditions were 50 mM potassium phosphate, pH 7.4, with 50 μM APN nucleoside in 0.5 mL at 25° C. Reaction time was 7 minutes with 0.002 units of enzyme and 120 minutes with 0.2 units of enzyme. (The unit definition of adenosine deaminase is one unit will deaminate 1.0 μmol of adenosine to inosine per minute at pH 7.5 at 25° C.) Deoxyadenosine was the positive control which was 59% deaminated under the given conditions in 7 minutes with 0.002 units of enzyme. Deoxyguanosine was the negative control. Optical density was measured at 265 nm or 285 nm. The difference in optical density between the beginning and the end of the experiment was divided by the extinction coefficient then multiplied by the volume of the reaction to determine the number of mols of substrate transformed into product. Mols of product were divided by mols of substrate equivalent to a 100% complete reaction then multiplied by 100 to obtain percent deamination. The limit of detection was 0.001 optical density units.

For data set [2], the system named is PBM cells. To be noted: human, 4 h, 50 μM.
Another data set relates to MT-2 cells. Description: Intracellular nucleotides formed in MT-2 cells. In kind it is in vitro ADME.
For a further data set, the system named is HIV-1/LAI. Description: Anti-HIV-1 assay in PBM cells. The data set is classed as cell-based. To be noted: Tables 2-4, n = 3 for the MP prodrugs. On the procedure: Stock solutions (20-40 mM) of the compounds were prepared in sterile DMSO and then diluted to the desired concentration in growth medium. Cells were infected with the prototype HIV-1LAI at a multiplicity of infection of 0.01. Virus obtained from the cell supernatant was quantified on day 6 after infection by a reverse transcriptase assay using (rA)n·(dT)12-18 as template-primer. […] The antiviral EC50 and EC90 were obtained from the concentration-response curve using the median effective method described previously (see Chou T.-C. & Talalay P. Adv. Enzyme Regul. 1984, 22, 27-55; Belen'kii M. S. & Schinazi R. F. Antiviral Res. 1994, 25, 1-11).

[3] abbreviates: Chlorocebus sabaeus, Vero, Table 5, read-out: Toxicity IC50 Vero.
Setting [4] is: Hepatitis C virus, Huh-7, 120 h.
The mark [5] stands for this setting: Homo sapiens, CCRF-CEM, Table 5, read-out: Toxicity IC50 CEM.
The mark [6] stands for this setting: Homo sapiens, PBMC, Table 5, read-out: Toxicity IC50 PBM.

Like-named read-outs stand apart in the source and are kept apart here.

A word on the IC50: it is the point on the concentration scale where inhibition reaches its midpoint. The EC50 is the concentration needed to bring the measured effect to its halfway point. The EC90 is the concentration at which the effect reaches the 90% level. Turning to `C[C@@]1(O)[C@H](O)[C@@H](CO)O[C@H]1n1ccc(N)nc1=O` [2′-Me—C, reference compound], the IC50 was above 100 µM in the data set with Vero cells (Table 5, read-out: Toxicity IC50 Vero); 24.5 µM with CEM cells (Table 5, read-out: Toxicity IC50 CEM); 29.4 µM in the data set on PBM cells [1] (Table 5, read-out: Toxicity IC50 PBM). In addition, the EC50 in the data set on HCV Replicon RNA stood at 1.3 µM. Further, the EC90 in the data set on HCV Replicon RNA is 5.4 µM.
`C=CCNc1nc(N)nc2c1ncn2[C@H]1CC(N=[N+]=[N-])[C@@H](CO)O1` (stereo partly drawn) [drawing 47]: the IC50 in the data set with Vero cells (setting [3]), in the data set with CEM cells (setting [5]) and with PBM cells [1] (setting [6]) was above 100 µM throughout. Further, the concentration giving a half-maximal response (EC50) with HCV Replicon RNA (setting [4]) was above 10 µM; in the data set on HSV-1, above 100 µM. The concentration for an effect of 90% (EC90) with HCV Replicon RNA (setting [4]) is above 10 µM; with HSV-1, above 100 µM.
Regarding `CC(C)(CO)Nc1nc(N)nc2c1ncn2[C@H]1CC(N=[N+]=[N-])[C@@H](CO)O1` (stereo partly drawn) [drawing 50], the IC50 in the data set on Vero cells (setting [3]), in the data set with CEM cells (setting [5]) and with PBM cells [1] (setting [6]) was above 100 µM in each case. In addition, the EC50 in the data set with HCV Replicon RNA (setting [4]) is above 10 µM; with HSV-1, above 100 µM. The 90% effect concentration (EC90) was above 10 µM in the data set on HCV Replicon RNA (setting [4]) and above 100 µM in the data set with HSV-1.
For the molecule `Nc1ccn([C@H]2CS[C@@H](CO)O2)c(=O)n1` [Compound 3TC, (−)-2′,3′-dideoxy-3′-thiacytidine, reference compound], the concentration for an effect of 90% (EC90) in the data set on HBV is below 10 µM; in the data set on HIV-2/pROD10, 0.42 µM. Also, the IC50 in the data set with Vero cells (setting [3]), with CEM cells (setting [5]) and in the data set on PBM cells [1] (setting [6]) was above 100 µM in each case. For the same molecule, it took 0.075 µM to reach a half-maximal effect in the data set on HIV-2/pROD10 (EC50).
Turning to `[N-]=[N+]=N[C@H]1C[C@H](n2cnc3c(Cl)nc(N)nc32)O[C@@H]1CO` [Compound 68, ((2S,3S,5R)-5-(2-amino-6-chloro-9H-purin-9-yl)-3-azidotetrahydrofuran-2-yl)methanol], the “Deamination in 7 min (0.002 units Adenosine Deaminase)” value with adenosine deaminase (7 min) amounted to 12.81 ± 1.57%. In addition, the “Deamination in 120 min (0.2 units Adenosine Deaminase)” value with adenosine deaminase (120 min) was found to be 240.53 ± 5.86%. For the same molecule, in the data set with PBM cells [2], the “nucleotides detected (LC/MS)” value is recorded as “detection of RFS-457-TP” and the “species not detected (LC/MS)” value is given as “Neither Compound 6415 nor its phosphates were detected”. The “level of unchanged drug” value in the data set with MT-2 cells (MT-2 cells treated with drug for 30 min) was “Negligible levels of 6415 were detected”. In the data set on MT-2 cells (MT-2 cells, 4 hr at 50 μM), the “AZG-TP levels compared with AZG treatment” value was “higher”.
For the molecule `COCCNc1nc(N)nc2c1ncn2[C@H]1CC(N=[N+]=[N-])[C@@H](CO)O1` (stereo partly drawn) [drawing 58], the IC50 in the data set with Vero cells (setting [3]), with CEM cells (setting [5]) and with PBM cells [1] (setting [6]) was above 100 µM each time. Moreover, the EC50 in the data set on HCV Replicon RNA (setting [4]) was above 10 µM. Further, the EC90 in the data set with HCV Replicon RNA (setting [4]) is above 10 µM.
For `C=CCN(C)c1nc(N)nc2c1ncn2[C@H]1CC(N=[N+]=[N-])[C@@H](CO)O1` (stereo partly drawn) [drawing 48], the IC50 in the data set on Vero cells (Chlorocebus sabaeus, Vero, read-out: Toxicity IC50 Vero) is 32 µM; with CEM cells (setting [5]), 27 µM; with PBM cells [1] (setting [6]) it was above 100 µM. Further, the EC50 with HCV Replicon RNA (setting [4]) is above 10 µM; in the data set on HSV-1 it was above 100 µM. Further, the EC90 was above 10 µM in the data set with HCV Replicon RNA (setting [4]) and above 100 µM with HSV-1.
On to `CC(CO)Nc1nc(N)nc2c1ncn2[C@H]1CC(N=[N+]=[N-])[C@@H](CO)O1` (stereo partly drawn) [drawing 51], for which the IC50 in the data set with Vero cells (setting [3]), in the data set with CEM cells (setting [5]) and in the data set with PBM cells [1] (setting [6]) was above 100 µM each time. Also, the EC50 was above 10 µM with HCV Replicon RNA (setting [4]) and above 100 µM in the data set with HSV-1. Moreover, the EC90 with HCV Replicon RNA (setting [4]) was above 10 µM; in the data set on HSV-1, above 100 µM.
For `[N-]=[N+]=NC1C[C@H](n2cnc3c(NCCCCCO)nc(N)nc32)O[C@@H]1CO` (stereo partly drawn) [drawing 49], the IC50 in the data set on Vero cells (setting [3]), in the data set with CEM cells (setting [5]) and in the data set on PBM cells [1] (setting [6]) was above 100 µM in each case. Also, the EC50 in the data set on HCV Replicon RNA (setting [4]) was above 10 µM; with HSV-1, above 100 µM. Also, the EC90 with HCV Replicon RNA (setting [4]) was above 10 µM; in the data set with HSV-1, above 100 µM.
Regarding `[N-]=[N+]=NC1C[C@H](n2cnc3c(NC4CC4)nc(N)nc32)O[C@@H]1CO` (stereo partly drawn) [drawing 56], the IC50 with Vero cells (setting [3]), in the data set with CEM cells (setting [5]) and in the data set on PBM cells [1] (setting [6]) was above 100 µM each time. Moreover, the figures for the EC50 in the data set with HCV Replicon RNA (setting [4]) and with HSV-1 were above 10 µM and above 100 µM, respectively. Also, the figures for the EC90 in the data set with HCV Replicon RNA (setting [4]) and in the data set on HSV-1 were above 10 µM and above 100 µM, respectively.
In the case of `[N-]=[N+]=NC1C[C@H](n2cnc3c(O)nc(N)nc32)O[C@@H]1CO` (stereo partly drawn) [Compound 56, 3′-Azido-2′,3′-dideoxyguanosine], the major metabolite result in the data set with PBM cells [2] was “RFS-457-TP as the major metabolite”. The “concentration at which phosphorylation reaches steady state” value in the data set with MT-2 cells (MT-2, four different concentrations) worked out at 30 µM.
For `CCOC(=O)[C@H](C)NP(=O)(OC[C@H]1O[C@@H](n2cnc3c(N)nc(N)nc32)CC1N=[N+]=[N-])Oc1ccccc1` (stereo partly drawn) [RS-783], the IC50 was above 100 µM in the data set with Vero cells (Chlorocebus sabaeus, Vero, read-out: Vero IC50); 12.1 µM with CEM cells (Tables 2-4, read-out: CEM IC50); 9.6 µM in the data set with PBM cells [1] (Tables 2-4, read-out: PBM IC50). The EC50 with HIV-1/LAI (read-out: HIV EC50) stood at 0.0034 µM. Also, the EC90 in the data set on HIV-1/LAI (read-out: HIV EC90) turned out to be 0.035 µM.
For the molecule `CN(C)c1nc(N)nc2c1ncn2[C@H]1CC(N=[N+]=[N-])[C@@H](CO)O1` (stereo partly drawn) [drawing 53], the IC50 in the data set with Vero cells (setting [3]), in the data set with CEM cells (setting [5]) and in the data set on PBM cells [1] (setting [6]) was above 100 µM each time. The results for the EC50 in the data set on HCV Replicon RNA (setting [4]) and in the data set on HSV-1 were above 10 µM and above 100 µM, respectively. Further, the EC90 with HCV Replicon RNA (setting [4]) is above 10 µM; with HSV-1, above 100 µM.

Values taken from US8815829B2, “3′-azido purine nucleotide prodrugs for treatment of viral infections” (priority 2008, dated 2014).
